According to patent US9187411B2, “Leukotriene B4 antagonist compound” (Eli Lilly and Company, priority 2012, dated 2015):

Molecular target: T1, PPARδ (Homo sapiens, UniProt Q03181)
T1 construct: made in house; host or cells: Sf9 insect cells (baculovirus), crude cell lysate
T1 sequence (Q03181 1-441): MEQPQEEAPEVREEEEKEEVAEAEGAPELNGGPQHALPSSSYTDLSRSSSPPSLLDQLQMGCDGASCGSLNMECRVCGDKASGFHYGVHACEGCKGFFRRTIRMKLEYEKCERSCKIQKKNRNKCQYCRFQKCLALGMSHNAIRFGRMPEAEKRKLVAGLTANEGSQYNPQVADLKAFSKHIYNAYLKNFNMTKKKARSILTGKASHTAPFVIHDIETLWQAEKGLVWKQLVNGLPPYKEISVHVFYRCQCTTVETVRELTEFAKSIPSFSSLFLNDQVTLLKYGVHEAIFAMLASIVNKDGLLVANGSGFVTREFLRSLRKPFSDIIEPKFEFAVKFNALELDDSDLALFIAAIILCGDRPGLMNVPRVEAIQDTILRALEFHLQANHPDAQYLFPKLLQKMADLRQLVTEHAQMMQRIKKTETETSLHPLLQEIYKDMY
T1 sequence (P19793 1-462 partner): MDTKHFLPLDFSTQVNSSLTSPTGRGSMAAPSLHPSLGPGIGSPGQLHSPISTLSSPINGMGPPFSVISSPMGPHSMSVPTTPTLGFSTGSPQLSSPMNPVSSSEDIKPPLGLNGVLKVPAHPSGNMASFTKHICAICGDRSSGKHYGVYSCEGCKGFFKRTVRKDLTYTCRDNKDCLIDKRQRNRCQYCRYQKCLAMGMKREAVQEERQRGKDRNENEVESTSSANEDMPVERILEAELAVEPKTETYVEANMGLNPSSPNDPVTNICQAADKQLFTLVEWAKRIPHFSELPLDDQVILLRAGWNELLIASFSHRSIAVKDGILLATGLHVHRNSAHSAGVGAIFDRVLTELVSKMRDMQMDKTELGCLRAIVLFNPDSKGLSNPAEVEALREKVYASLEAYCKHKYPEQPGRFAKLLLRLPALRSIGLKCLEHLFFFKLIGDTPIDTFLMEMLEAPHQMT
Experiment: PPAR delta binding assay (SPA)
Settings: tritiated GW2331, n=4, read-out: Ki PPAR δ binding
Source text: The nucleotide sequences encoding full-length PPARα receptor DNA (National Center for Biotechnology Information (NCBI) Reference Sequence NM_005036.4), PPARδ receptor DNA (NCBI Reference Sequence NM_006238.4), PPARγ receptor DNA (NCBI Reference Sequence NM_015869.4) and Retinoid X Receptor (RXR) α DNA (NCBI Reference Sequence NM_002957.4) are synthesized and inserted into pFastBacHTb (Invitrogen) vector in-framed with the N-terminal HIS tag from the vector. […] The protein concentration is determined by Bradford assay using BSA as the standard.
Binding Affinities of Compounds for the PPAR α, δ, γ Receptors are Assessed Using Scintillation Proximity Assay (SPA) Technology.
Biotinylated oligonucleotide(DR2) ^5′[…]^3′ (SEQ ID NO: 1) is used for binding of receptors to Yttrium silicate streptavidin-coated SPA beads (Perkin Elmer). The PPAR α, δ, γ and Retinoid X Receptor (RXR) α receptors (endogenously expressed as heterodimers) are cell lysates from Baculovirus expression systems in Sf9 cells. […] Non-specific binding is determined in the presence of 10000 nM unlabeled GW2331 (Kliewer, S. A. et al Proc. Natl. Acad. Sci. USA (1997), 94: 4318-4323) for the alpha and delta receptors and 2-methyl-2-[4-[3-[propyl[(5-pyridin-2-ylthiophen-2-yl)sulfonyl]amino]-propyl]phenoxy]propanoic (WO 2004/073606) for the gamma receptor. […]

CCCc1c(NC(=O)CC(C)(C)C(=O)[O-])cccc1OCCCOc1cc(O)c(-c2ccc(F)cc2)cc1CC.[Na+] [Example 2, Sodium 4-[[3-[3-[2-ethyl-4-(4-fluorophenyl)-5-hydroxy-phenoxy]propoxy]-2-propyl-phenyl]amino]-2,2-dimethyl-4-oxo-butanoate]
Ki: > 8.83 µM
